Literature values, collected in patent US20040219200A1, “Topical patch preparation containing a delayed-type hypersensitivity inducer and methods for using the same” (priority 2001, published 2004).

Conditions: research conducted in the 1950s in the US

For `O=[N+]([O-])c1ccc(Cl)c([N+](=O)[O-])c1` [DNCB, 1-chloro-2,4-dinitrobenzene], the Carcinogenicity is given as “not carcinogenic”.
